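Following 48 hours of exposure in 96-well plates, responses at five concentrations were used to interpolate endpoints linearly. TGI marks complete inhibition of growth.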

Test systems include SK-MEL-2 melanoma; OVCAR-8 ovarian; HCC-2998 colon; HCT-15 colon; SK-OV-3 ovarian; OVCAR-3 ovarian; HCT-116 colon; CAKI-1 renal; NCI-H460 lung; SNB-19 CNS; SW-620 colon; 786-0 renal; OVCAR-5 ovarian; MDA-N.
Holding throughout (assay): NCI anticancer screen, dose series, 48 h

Consider `Fc1cc(-c2cc(-c3ccccc3)no2)c(Cl)cc1Cl`, for which the TGI was greater than 40.1 µM with SK-MEL-2 melanoma; greater than 40.8 µM in the assay on OVCAR-8 ovarian; greater than 72 µM in the assay with HCC-2998 colon; greater than 68.4 µM with HCT-15 colon; greater than 50.3 µM in the assay with SK-OV-3 ovarian; greater than 40.1 µM with OVCAR-3 ovarian. Further, the TGI in the assay on HCT-116 colon is greater than 31.7 µM; with CAKI-1 renal it was greater than 100 µM; in the assay on NCI-H460 lung, greater than 43.1 µM; in the assay on SNB-19 CNS, greater than 62.5 µM; with SW-620 colon, greater than 63.3 µM; in the assay on 786-0 renal, greater than 33.6 µM. Besides, the TGI in the assay with OVCAR-5 ovarian was greater than 42.9 µM; in the assay on MDA-N, greater than 68.9 µM.
With `O=c1c(/C=C/c2c(O)ccc3ccccc23)nnc2sc(-c3cccc(Br)c3)nn12`, the TGI in the assay on SK-MEL-2 melanoma is greater than 100 µM; with OVCAR-8 ovarian, 23.6 µM; in the assay on HCC-2998 colon it was 89 µM; in the assay with HCT-15 colon it was 64.7 µM; in the assay on SK-OV-3 ovarian, greater than 100 µM; with OVCAR-3 ovarian, greater than 100 µM. Also, the TGI was greater than 100 µM with HCT-116 colon; 56.8 µM in the assay with CAKI-1 renal; greater than 100 µM with NCI-H460 lung; greater than 100 µM in the assay on SNB-19 CNS; greater than 100 µM in the assay on SW-620 colon; greater than 100 µM with 786-0 renal. Besides, the TGI in the assay with OVCAR-5 ovarian and in the assay with MDA-N was greater than 100 µM each time.
With `CN=C(N=Nc1c(O)[nH]c2ccccc12)SCC(=O)c1ccc(Br)cc1`, the TGI is greater than 100 µM in the assay on SK-MEL-2 melanoma; greater than 40.7 µM in the assay on OVCAR-8 ovarian; 13.2 µM in the assay with HCC-2998 colon; greater than 89.3 µM in the assay with HCT-15 colon; 28.4 µM in the assay with SK-OV-3 ovarian; 28.2 µM in the assay on OVCAR-3 ovarian. Besides, the TGI with HCT-116 colon is 19.7 µM; with CAKI-1 renal it was greater than 65.5 µM; with NCI-H460 lung, greater than 38.3 µM; with SNB-19 CNS it was greater than 100 µM; in the assay on SW-620 colon it was greater than 34.1 µM; with 786-0 renal, 16 µM. The TGI is greater than 88.8 µM in the assay with OVCAR-5 ovarian and greater than 100 µM in the assay on MDA-N.
Regarding `CC(=O)c1c(C)n([O-])c2cc(Cl)c(Cl)cc2[n+]1=O`, the TGI in the assay on SK-MEL-2 melanoma was greater than 100 µM; in the assay on OVCAR-8 ovarian, 89.9 µM; in the assay with HCC-2998 colon, 57.8 µM; with HCT-15 colon, greater than 100 µM; in the assay with SK-OV-3 ovarian it was 54.4 µM; in the assay on OVCAR-3 ovarian it was 88.5 µM. Also, the TGI is greater than 100 µM with HCT-116 colon; 58.1 µM in the assay with CAKI-1 renal; 56 µM in the assay on NCI-H460 lung; greater than 100 µM with SNB-19 CNS; greater than 100 µM with SW-620 colon; greater than 100 µM in the assay on 786-0 renal. The TGI in the assay with OVCAR-5 ovarian and in the assay on MDA-N was greater than 100 µM each time.
As to `COc1cc(C2c3cc4c(cc3OC3(OC)COC(=O)C23)OCO4)cc(OC)c1OC(C)=O` (stereo not given), the TGI in the assay on SK-MEL-2 melanoma is greater than 100 µM; in the assay on OVCAR-8 ovarian, greater than 75.2 µM; in the assay with HCC-2998 colon, 14.3 µM; in the assay with HCT-15 colon, greater than 100 µM; in the assay on SK-OV-3 ovarian, greater than 100 µM; in the assay on OVCAR-3 ovarian, greater than 36.2 µM. Besides, the TGI in the assay with HCT-116 colon was 38.7 µM; in the assay with CAKI-1 renal, greater than 100 µM; in the assay on NCI-H460 lung it was greater than 59.7 µM; in the assay on SNB-19 CNS, greater than 100 µM; with SW-620 colon, greater than 100 µM; in the assay with 786-0 renal, greater than 100 µM. Moreover, the TGI with OVCAR-5 ovarian is greater than 41.4 µM; in the assay on MDA-N it was 2.55 µM.
`COC(=O)/C=C(\C)CC(O)/C=C(\C)CCC=C(C)C` (stereo not given): the TGI in the assay on SK-MEL-2 melanoma was 73.7 µM; in the assay with OVCAR-8 ovarian, greater than 100 µM; with HCC-2998 colon it was greater than 100 µM; in the assay with HCT-15 colon, greater than 100 µM; in the assay on SK-OV-3 ovarian it was greater than 100 µM; in the assay on OVCAR-3 ovarian, 87.7 µM. Moreover, the TGI in the assay with HCT-116 colon, in the assay with CAKI-1 renal, with NCI-H460 lung, with SNB-19 CNS, with SW-620 colon and in the assay on 786-0 renal was greater than 100 µM throughout. For the same compound, the TGI with OVCAR-5 ovarian and in the assay on MDA-N was greater than 100 µM throughout.
Regarding `N#Cc1c(N)nc2n[nH]c(N)c2c1-c1ccc(Cl)cc1`, the TGI in the assay on SK-MEL-2 melanoma is 6.57 µM; in the assay with OVCAR-8 ovarian it was greater than 50.8 µM; in the assay on HCC-2998 colon, greater than 64.7 µM; in the assay on HCT-15 colon it was greater than 72.6 µM; with SK-OV-3 ovarian, 7.33 µM; in the assay on OVCAR-3 ovarian, 18.2 µM. Besides, the TGI was greater than 100 µM in the assay on HCT-116 colon; 29.3 µM with CAKI-1 renal; greater than 96.7 µM in the assay on NCI-H460 lung; greater than 59.9 µM in the assay with SNB-19 CNS; greater than 100 µM with SW-620 colon; greater than 60.8 µM in the assay with 786-0 renal. The TGI in the assay with OVCAR-5 ovarian and in the assay with MDA-N was greater than 100 µM throughout.
Consider `O=C(/C=C/c1cc2ccccc2o1)N1CCN(c2ccccn2)CC1`, for which the TGI in the assay with SK-MEL-2 melanoma, with OVCAR-8 ovarian, in the assay with HCC-2998 colon, with HCT-15 colon, in the assay on SK-OV-3 ovarian and with OVCAR-3 ovarian was greater than 100 µM in each case. For the same compound, the TGI in the assay with HCT-116 colon, in the assay on CAKI-1 renal, with NCI-H460 lung, in the assay with SNB-19 CNS, with SW-620 colon and with 786-0 renal was greater than 100 µM each time. Moreover, the TGI with OVCAR-5 ovarian and in the assay with MDA-N was greater than 100 µM throughout.
In the case of `N#CCCN(C(=O)Nc1ccccc1)[C@H]1CCCC[C@@H]1N(C(=O)Nc1ccccc1)c1ccccc1`, the TGI in the assay on SK-MEL-2 melanoma, in the assay with OVCAR-8 ovarian, in the assay on HCC-2998 colon, with HCT-15 colon, in the assay on SK-OV-3 ovarian and in the assay with OVCAR-3 ovarian was greater than 100 µM throughout. Moreover, the TGI in the assay with HCT-116 colon, in the assay with CAKI-1 renal, with NCI-H460 lung, in the assay on SNB-19 CNS, in the assay on SW-620 colon and with 786-0 renal was greater than 100 µM in each case. In addition, the TGI with OVCAR-5 ovarian and in the assay with MDA-N was greater than 100 µM in each case.
Regarding `O=C1CCCC1CN1CCCC1` (stereo not given), the TGI with SK-MEL-2 melanoma was 18.5 µM; in the assay with OVCAR-8 ovarian, 35.4 µM; in the assay with HCC-2998 colon it was greater than 60.4 µM; in the assay on HCT-15 colon it was 5.89 µM; with SK-OV-3 ovarian it was 27.7 µM; in the assay with OVCAR-3 ovarian, 28.9 µM. Further, the TGI in the assay on HCT-116 colon was 11.7 µM; in the assay with CAKI-1 renal, 0.773 µM; in the assay with NCI-H460 lung it was greater than 58.4 µM; with SNB-19 CNS it was greater than 100 µM; with SW-620 colon, 11.3 µM; in the assay with 786-0 renal it was 14.9 µM. In addition, the TGI was determined as 32.4 µM in the assay on OVCAR-5 ovarian and 26.8 µM in the assay with MDA-N.
Regarding `CN(C)CCCC12CCCCC1=Nc1ccccc12` (stereo not given), the TGI with SK-MEL-2 melanoma, in the assay on OVCAR-8 ovarian, in the assay with HCC-2998 colon, with HCT-15 colon, in the assay with SK-OV-3 ovarian and in the assay with OVCAR-3 ovarian was greater than 100 µM throughout. Moreover, the TGI in the assay with HCT-116 colon, with CAKI-1 renal, in the assay on NCI-H460 lung, in the assay on SNB-19 CNS, in the assay with SW-620 colon and in the assay on 786-0 renal was greater than 100 µM in each case. Moreover, the TGI in the assay on OVCAR-5 ovarian and in the assay on MDA-N was greater than 100 µM in each case.
`O=C(O)[C@@H]1CCS(=O)(=O)N1`: the TGI in the assay with SK-MEL-2 melanoma, in the assay on OVCAR-8 ovarian, in the assay with HCC-2998 colon, in the assay with HCT-15 colon, with SK-OV-3 ovarian and with OVCAR-3 ovarian was greater than 100 µM in each case. For the same compound, the TGI with HCT-116 colon, in the assay on CAKI-1 renal, in the assay with NCI-H460 lung, in the assay with SNB-19 CNS, in the assay on SW-620 colon and in the assay with 786-0 renal was greater than 100 µM throughout. The TGI in the assay with OVCAR-5 ovarian and with MDA-N was greater than 100 µM throughout.
`CCOC(=O)c1nnc2c(C(=O)OCC)c3ccccc3n2c1N`: the TGI in the assay with SK-MEL-2 melanoma was greater than 100 µM; in the assay with OVCAR-8 ovarian it was greater than 100 µM; in the assay on HCC-2998 colon it was greater than 100 µM; with HCT-15 colon it was greater than 100 µM; with SK-OV-3 ovarian it was 91.8 µM; with OVCAR-3 ovarian, greater than 100 µM. Also, the TGI with HCT-116 colon, in the assay on CAKI-1 renal, in the assay on NCI-H460 lung, in the assay on SNB-19 CNS, with SW-620 colon and with 786-0 renal was greater than 100 µM throughout. Further, the TGI with OVCAR-5 ovarian and in the assay with MDA-N was greater than 100 µM throughout.
As to `O=C1/C(=C/c2ccccc2S)N=C(c2ccccc2)N1c1nc2c(Cl)cc(Cl)cc2s1`, the TGI is 52.9 µM in the assay on SK-MEL-2 melanoma; 73.3 µM with OVCAR-8 ovarian; 54.7 µM in the assay with HCC-2998 colon; greater than 100 µM in the assay on HCT-15 colon; 66 µM in the assay with SK-OV-3 ovarian; 40.2 µM in the assay on OVCAR-3 ovarian. Moreover, the TGI in the assay on HCT-116 colon is 36.5 µM; in the assay with CAKI-1 renal, greater than 100 µM; in the assay with NCI-H460 lung it was greater than 100 µM; with SNB-19 CNS, 84.5 µM; with SW-620 colon it was greater than 100 µM; in the assay with 786-0 renal it was 74.1 µM. Besides, the values for the TGI in the assay on OVCAR-5 ovarian and in the assay with MDA-N were 54.8 µM and 36.9 µM, respectively.
For `CC12CC(c3ccccc3O1)C(C(=O)Nc1ccc(Cl)cc1Cl)C(=O)N2` (stereo not given), the TGI is greater than 100 µM in the assay with SK-MEL-2 melanoma; 30.6 µM with OVCAR-8 ovarian; greater than 100 µM in the assay with HCC-2998 colon; greater than 100 µM in the assay on HCT-15 colon; greater than 100 µM with SK-OV-3 ovarian; greater than 100 µM with OVCAR-3 ovarian. The TGI with HCT-116 colon was greater than 100 µM; in the assay with CAKI-1 renal, greater than 100 µM; in the assay on NCI-H460 lung, greater than 100 µM; with SNB-19 CNS, greater than 100 µM; with SW-620 colon, greater than 100 µM; with 786-0 renal it was 43.8 µM. The TGI in the assay on OVCAR-5 ovarian and in the assay on MDA-N was greater than 100 µM each time.

Values taken from PubChem BioAssay (NCI).
